Data taken from patent publication US10696655B2, “Therapeutic compounds and uses thereof” (GENENTECH, INC., priority 2017, dated 2020).

Assays:
[1] = test system: MYC; test: MYC RPL19 QuantiGene assay in MV-4-11 cells; type: cell-based; settings: Homo sapiens, MV4-11, compound 4 hours
Source text: MYC RPL19 QuantiGene assay in MV-4-11 Cells

[2] = molecular target: CBP (Homo sapiens (Human), UniProt Q92793); test: CBP TR-FRET binding assay; settings: His/Flag tagged CBP 4 nM, biotin-ligand 60 nM; read-out: CBP HTRF IC50;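 also: displacement of a biotinylated small-molecule ligand from purified recombinant CBP read by TR-FRET, DMSO-only wells as control, IC50 from nonlinear curve fit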
Chain of CBP (Q92793 whole entry): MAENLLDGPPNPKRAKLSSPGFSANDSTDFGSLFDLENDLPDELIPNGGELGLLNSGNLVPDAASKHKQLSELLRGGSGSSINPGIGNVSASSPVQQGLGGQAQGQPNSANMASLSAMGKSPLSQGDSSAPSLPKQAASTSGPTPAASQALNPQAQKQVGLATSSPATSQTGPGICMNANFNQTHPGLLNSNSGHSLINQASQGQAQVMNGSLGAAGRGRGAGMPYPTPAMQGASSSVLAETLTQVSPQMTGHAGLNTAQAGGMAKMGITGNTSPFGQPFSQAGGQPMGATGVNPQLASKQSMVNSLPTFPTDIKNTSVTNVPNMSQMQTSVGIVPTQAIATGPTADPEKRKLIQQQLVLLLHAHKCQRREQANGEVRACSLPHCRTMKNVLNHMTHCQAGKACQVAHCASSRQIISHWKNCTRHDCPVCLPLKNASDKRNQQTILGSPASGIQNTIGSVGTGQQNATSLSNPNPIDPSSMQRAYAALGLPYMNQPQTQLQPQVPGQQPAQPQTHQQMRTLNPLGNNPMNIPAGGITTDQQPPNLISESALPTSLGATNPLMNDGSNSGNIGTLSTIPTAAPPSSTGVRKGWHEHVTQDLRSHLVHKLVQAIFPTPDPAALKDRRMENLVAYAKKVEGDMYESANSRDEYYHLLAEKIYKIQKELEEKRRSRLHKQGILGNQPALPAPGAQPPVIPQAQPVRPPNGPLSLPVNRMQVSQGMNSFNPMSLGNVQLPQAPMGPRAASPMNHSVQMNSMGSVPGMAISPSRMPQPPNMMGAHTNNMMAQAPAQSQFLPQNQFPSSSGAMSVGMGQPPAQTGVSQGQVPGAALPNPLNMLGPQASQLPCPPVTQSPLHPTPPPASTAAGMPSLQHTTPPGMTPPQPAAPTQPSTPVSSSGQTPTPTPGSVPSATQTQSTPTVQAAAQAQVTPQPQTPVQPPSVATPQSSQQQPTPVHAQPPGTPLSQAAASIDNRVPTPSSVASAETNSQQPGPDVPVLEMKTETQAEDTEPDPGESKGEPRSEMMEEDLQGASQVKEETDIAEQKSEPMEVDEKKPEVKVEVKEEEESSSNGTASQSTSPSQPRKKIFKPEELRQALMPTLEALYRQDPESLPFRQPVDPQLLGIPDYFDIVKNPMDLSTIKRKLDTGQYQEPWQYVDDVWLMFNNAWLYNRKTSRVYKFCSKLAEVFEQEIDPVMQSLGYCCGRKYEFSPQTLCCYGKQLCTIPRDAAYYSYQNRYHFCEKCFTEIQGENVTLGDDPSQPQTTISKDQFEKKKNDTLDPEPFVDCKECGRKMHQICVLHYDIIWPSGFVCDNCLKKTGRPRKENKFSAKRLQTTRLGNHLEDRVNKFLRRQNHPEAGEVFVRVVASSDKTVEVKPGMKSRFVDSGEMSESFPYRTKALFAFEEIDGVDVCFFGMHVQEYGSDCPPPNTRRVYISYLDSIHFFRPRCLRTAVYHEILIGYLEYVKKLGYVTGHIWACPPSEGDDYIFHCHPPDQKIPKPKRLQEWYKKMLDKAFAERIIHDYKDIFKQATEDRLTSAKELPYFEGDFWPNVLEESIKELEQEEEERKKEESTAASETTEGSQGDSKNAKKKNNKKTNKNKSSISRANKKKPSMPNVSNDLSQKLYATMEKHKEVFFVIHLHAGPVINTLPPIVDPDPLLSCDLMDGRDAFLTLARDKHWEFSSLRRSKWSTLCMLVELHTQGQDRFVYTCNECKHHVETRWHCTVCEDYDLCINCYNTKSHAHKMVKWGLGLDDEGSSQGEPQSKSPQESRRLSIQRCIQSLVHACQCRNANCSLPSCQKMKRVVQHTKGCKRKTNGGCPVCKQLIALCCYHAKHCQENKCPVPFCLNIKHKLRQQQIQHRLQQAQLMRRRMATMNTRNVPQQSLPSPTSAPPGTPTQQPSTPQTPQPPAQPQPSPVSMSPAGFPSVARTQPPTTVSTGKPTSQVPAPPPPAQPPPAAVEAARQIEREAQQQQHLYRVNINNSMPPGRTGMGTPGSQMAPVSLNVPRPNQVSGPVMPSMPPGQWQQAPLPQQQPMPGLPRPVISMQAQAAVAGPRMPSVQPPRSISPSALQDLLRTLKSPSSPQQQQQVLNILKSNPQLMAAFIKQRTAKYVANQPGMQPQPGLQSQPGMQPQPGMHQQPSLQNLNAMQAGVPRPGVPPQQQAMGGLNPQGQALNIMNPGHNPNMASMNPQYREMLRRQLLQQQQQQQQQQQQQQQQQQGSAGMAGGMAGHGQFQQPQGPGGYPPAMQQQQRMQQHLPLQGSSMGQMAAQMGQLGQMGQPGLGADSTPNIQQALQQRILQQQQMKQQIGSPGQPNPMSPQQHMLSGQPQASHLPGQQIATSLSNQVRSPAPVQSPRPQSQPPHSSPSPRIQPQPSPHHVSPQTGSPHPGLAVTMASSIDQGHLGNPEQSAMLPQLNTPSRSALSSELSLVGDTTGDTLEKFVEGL
Method: IC50 Measurements for Inhibitors Using CBP TR FRET Binding Assay
His/Flag epitope tagged CBP was cloned, expressed, and purified to homogeneity. CBP binding and inhibition was assessed by monitoring the engagement of a biotinylated small molecule compound with the target using the TR-FRET assay technology (Perkin-Elmer). Specifically, in a 384 well ProxiPlate CBP (4 nM final) was combined with biotin-ligand (60 nM final) in 50 mM HEPES (pH 7.5), 50 mM NaCl, 1 mM TCEP, 0.01% (w/v) BSA, and 0.008% (w/v) Brij-35 either in the presence of DMSO (final 0.2% DMSO) or compound dilution series in DMSO. […] After twenty minutes of equilibration, the plates were read on an Envision instrument and IC50S calculated using a four parameter non-linear curve fit.

Row | IC50 [1] [nM] | IC50 [2] [nM] | Structure (SMILES)
1 | 173 | 8 | CNC(=O)N1CCNc2ccc(N3CCCc4cc(-c5cnn(C)c5)c(C(F)F)cc43)cc2C1 [Example 16, 7-[7-(difluoromethyl)-6-(1-methylpyrazol-4-yl)-3,4-dihydro-2H-quinolin-1-yl]-N-methyl-1,2,3,5-tetrahydro-1,4-benzodiazepine-4-carboxamide]
2 | 2660 | 47 | CC(=O)N1CCc2c(cc(N3CCCc4cc(-c5cnn(C)c5)c(C(F)F)cc43)c(=O)n2C)C1 [Example 17]
3 | 1020 | 19 | Cn1cc(-c2cc3c(cc2C(F)F)N(c2ccc4c(c2)n(C)c(=O)n4C)CCC3)cn1 [Example 18]
4 | 1170 | 42 | Cn1cc(-c2cc3c(cc2C(F)F)N(c2cc(Cl)c4c(c2)n(C)c(=O)n4C)CCC3)cn1 [Example 33, 4-chloro-6-(7-(difluoromethyl)-6-(1-methyl-1H-pyrazol-4-yl)-3,4-dihydroquinolin-1(2H)-yl)-1,3-dimethyl-1H-benzo[d]imidazol-2(3H)-one]
5 | > 10000 | > 4900 | Cn1cc(-c2cc3c(cc2C(F)F)N(c2ccc4c(c2F)n(C)c(=O)n4C)CCC3)cn1 [Example 34]
6 | 428 | 23 | Cn1cc(-c2cc3c(cc2C(F)F)N(c2cc4c(cc2F)n(C)c(=O)n4C)CCC3)cn1 [Example 35]
7 | 1380 | 14 | Cc1cc(N2CCCc3cc(-c4cnn(C)c4)c(C(F)F)cc32)cc2c1n(C)c(=O)n2C [Example 36, 6-(7-(difluoromethyl)-6-(1-methyl-1H-pyrazol-4-yl)-3,4-dihydroquinolin-1(2H)-yl)-1,3,4-trimethyl-1H-benzo[d]imidazol-2(3H)-one]
8 | 281 | 11 | CCc1cc(N2CCCc3cc(-c4cnn(C)c4)c(C(F)F)cc32)cc2c1n(C)c(=O)n2C [Example 37]
9 | 208 | 12 | Cn1cc(-c2cc3c(cc2C(F)F)N(c2cc(C4CCC4)c4c(c2)n(C)c(=O)n4C)CCC3)cn1 [Example 39]
10 | 1940 | 72 | Cc1c(N2CCCc3cc(-c4cnn(C)c4)c(C(F)F)cc32)ccc2c1n(C)c(=O)n2C [Example 40]
11 | 136 | 5 | CN(C)c1cc(N2CCCc3cc(-c4cnn(C)c4)c(C(F)F)cc32)cc2c1n(C)c(=O)n2C [Example 41, 6-(7-(difluoromethyl)-6-(1-methyl-1H-pyrazol-4-yl)-3,4-dihydroquinolin-1(2H)-yl)-4-(dimethylamino)-1,3-dimethyl-1H-benzo[d]imidazol-2(3H)-one]
12 | 115 | 6 | Cn1cc(-c2cc3c(cc2C(F)F)N(c2cc(N4CCCC4)c4c(c2)n(C)c(=O)n4C)CCC3)cn1 [Example 43]
13 | 11 | 4 | Cn1cc(-c2cc3c(cc2C(F)F)N(c2cc(N4CCOCC4)c4c(c2)n(C)c(=O)n4C)CCC3)cn1 [Example 45]
14 | 413 | 13 | Cc1cc2c(cc1N1CCCc3cc(-c4cnn(C)c4)c(C(F)F)cc31)n(C)c(=O)n2C [Example 46]
15 | 1110 | 39 | CCc1cc2c(cc1N1CCCc3cc(-c4cnn(C)c4)c(C(F)F)cc31)n(C)c(=O)n2C [Example 47]
16 | 131 |  | C[C@H]1Nc2c(cccc2N2CCCc3cc(-c4cnn(C)c4)c(C(F)F)cc32)NC1=O [Example 81, (R)-5-(7-(difluoromethyl)-6-(1-methyl-1H-pyrazol-4-yl)-3,4-dihydroquinolin-1(2H)-yl)-3-methyl-3,4-dihydroquinoxalin-2(1H)-one]
17 |  | 30 | CN1CCN(c2ccc3c(c2)n(C)c(=O)n3C)c2cc(C(F)(F)F)c(-c3cnn(C)c3)cc21 [Example 95, 1,3-dimethyl-5-(4-methyl-6-(1-methyl-1H-pyrazol-4-yl)-7-(trifluoromethyl)-3,4-dihydroquinoxalin-1(2H)-yl)-1H-benzo[d]imidazol-2(3H)-one]
18 |  | 19 | CCCc1cc(N2CCCc3cc(-c4cnn(C)c4)c(C(F)F)cc32)cc2c1n(C)c(=O)n2C [Example 99, 6-(7-(difluoromethyl)-6-(1-methyl-1H-pyrazol-4-yl)-3,4-dihydroquinolin-1(2H)-yl)-1,3-dimethyl-4-propyl-1H-benzo[d]imidazol-2(3H)-one]

Row | IC50 [1] [nM] | IC50 [2] [nM] | Structure (SMILES)
19 |  | 12 | C#Cc1cc(N2CCCc3cc(-c4cnn(C)c4)c(C(F)F)cc32)cc2c1n(C)c(=O)n2C [Example 101, 6-(7-(difluoromethyl)-6-(1-methyl-1H-pyrazol-4-yl)-3,4-dihydroquinolin-1(2H)-yl)-4-ethynyl-1,3-dimethyl-1H-benzo[d]imidazol-2(3H)-one]
20 |  | 21 | C#Cc1cc2c(cc1N1CCCc3cc(-c4cnn(C)c4)c(C(F)F)cc31)n(C)c(=O)n2C [Example 102, 5-(7-(difluoromethyl)-6-(1-methyl-1H-pyrazol-4-yl)-3,4-dihydroquinolin-1(2H)-yl)-6-ethynyl-1,3-dimethyl-1H-benzo[d]imidazol-2(3H)-one]
21 |  | 222 | CNC(=O)c1ccc2c(c1)n(-c1cccc3cc(-c4cnn(C)c4)ncc13)c(=O)n2C [Example 103, N,1-dimethyl-3-(3-(1-methyl-1H-pyrazol-4-yl)isoquinolin-8-yl)-2-oxo-2,3-dihydro-1H-benzo[d]imidazole-5-carboxamide]
22 |  | 16 | CNC(=O)c1cn(C)c2c(OC)cc(N3CCCc4cc(-c5cnn(C)c5)c(C(F)F)cc43)cc12 [Example 106, 5-(7-(difluoromethyl)-6-(1-methyl-1H-pyrazol-4-yl)-3,4-dihydroquinolin-1(2H)-yl)-7-methoxy-N,1-dimethyl-1H-indole-3-carboxamide]
23 |  | 273 | CCc1cc(-c2ccccc2C)cc2c1OCCN(C(=O)NC)C2 [Example 109, 9-ethyl-N-methyl-7-(o-tolyl)-2,3-dihydrobenzo[f][1,4]oxazepine-4(5H)-carboxamide]
24 |  | 201 | CNC(=O)N1CCOc2c(cc(-c3ccccc3C)cc2C(C)C)C1 [Example 110, 9-isopropyl-N-methyl-7-(o-tolyl)-2,3-dihydrobenzo[f][1,4]oxazepine-4(5H)-carboxamide]
25 |  | 409 | CNC(=O)N1CCOc2c(cc(-c3ccccc3C)cc2OC)C1 [Example 111, 9-methoxy-N-methyl-7-(o-tolyl)-2,3-dihydrobenzo[f][1,4]oxazepine-4(5H)-carboxamide]
26 |  | 51 | CNC(=O)N1Cc2cc(N3CCCc4cc(-c5cnn(C)c5)c(C(F)F)cc43)ccc2OC(C)C1 (stereo not drawn) [Example 114, 7-(7-(difluoromethyl)-6-(1-methyl-1H-pyrazol-4-yl)-3,4-dihydroquinolin-1(2H)-yl)-N,2-dimethyl-2,3-dihydrobenzo[f][1,4]oxazepine-4(5H)-carboxamide]
27 |  | 77 | C[C@H]1Oc2c(cccc2N2CCCc3cc(-c4cnn(C)c4)c(C(F)F)cc32)NC1=O [Example 115, (R)-8-(7-(difluoromethyl)-6-(1-methyl-1H-pyrazol-4-yl)-3,4-dihydroquinolin-1(2H)-yl)-2-methyl-2H-benzo[b][1,4]oxazin-3(4H)-one]
28 |  | 26 | CN1Cc2c(cccc2N2CCCc3cc(-c4cnn(C)c4)c(C(F)F)cc32)NC1=O [Example 116, 5-(7-(difluoromethyl)-6-(1-methyl-1H-pyrazol-4-yl)-3,4-dihydroquinolin-1(2H)-yl)-3-methyl-3,4-dihydroquinazolin-2(1H)-one]
29 |  | 40 | CNC(=O)[C@H]1CCc2ccc(N3CCCc4cc(-c5cnn(C)c5)c(C(F)F)cc43)nc21 [Example 117, (S)-2-(7-(difluoromethyl)-6-(1-methyl-1H-pyrazol-4-yl)-3,4-dihydroquinolin-1(2H)-yl)-N-methyl-6,7-dihydro-5H-cyclopenta[b]pyridine-7-carboxamide]
30 |  | 3240 | CNC(=O)[C@@H]1CCc2ccc(N3CCCc4cc(-c5cnn(C)c5)c(C(F)F)cc43)nc21 [Example 118, (R)-2-(7-(difluoromethyl)-6-(1-methyl-1H-pyrazol-4-yl)-3,4-dihydroquinolin-1(2H)-yl)-N-methyl-6,7-dihydro-5H-cyclopenta[b]pyridine-7-carboxamide]
31 |  | 34 | CNC(=O)c1ccc2cncc(N3CCCc4cc(-c5cnn(C)c5)c(C(F)F)cc43)c2c1 [Example 119, 4-(7-(difluoromethyl)-6-(1-methyl-1H-pyrazol-4-yl)-3,4-dihydroquinolin-1(2H)-yl)-N-methylisoquinoline-6-carboxamide]
32 |  | 274 | CNC(=O)c1cccc2oc(-c3cccc4cc(-c5cnn(C)c5)ncc34)nc12 [Example 121, N-methyl-2-(3-(1-methyl-1H-pyrazol-4-yl)isoquinolin-8-yl)benzo[d]oxazole-4-carboxamide]
33 |  | 88 | CNC(=O)Nc1cccc(N2CCCc3cc(-c4cnn(C)c4)c(C(F)F)cc32)n1 [Example 122, 1-(6-(7-(difluoromethyl)-6-(1-methyl-1H-pyrazol-4-yl)-3,4-dihydroquinolin-1(2H)-yl)pyridin-2-yl)-3-methylurea]
34 |  | 14 | CNC(=O)c1cn(C)nc1C(=O)Nc1cccc2cc(-c3cnn(C)c3)ncc12 [Example 124, N^4,1-dimethyl-N^3-(3-(1-methyl-1H-pyrazol-4-yl)isoquinolin-8-yl)-1H-pyrazole-3,4-dicarboxamide]
35 |  | 2 | CNC(=O)c1ccc2c(n1)c(N1CCCc3cc(-c4cnn(C)c4)c(C(F)F)cc31)nn2C1CCOCC1 [Example 125, 3-(7-(difluoromethyl)-6-(1-methyl-1H-pyrazol-4-yl)-3,4-dihydroquinolin-1(2H)-yl)-N-methyl-1-(tetrahydro-2H-pyran-4-yl)-1H-pyrazolo[4,3-b]pyridine-5-carboxamide]
36 |  | 184 | CNC(=O)C1CCc2c(c(N3CCCc4cc(-c5cnn(C)c5)c(C(F)F)cc43)nn2C2CCOCC2)C1 (stereo not drawn) [Example 126, 3-(7-(difluoromethyl)-6-(1-methyl-1H-pyrazol-4-yl)-3,4-dihydroquinolin-1(2H)-yl)-N-methyl-1-(tetrahydro-2H-pyran-4-yl)-4,5,6,7-tetrahydro-1H-indazole-5-carboxamide]
